# Assay results as given in patent publication US9255122B2, “Cholate and deoxycholate-based amphiphiles for membrane protein manipulation” (Wisconsin Alumni Research Foundation, priority 2013, dated 2016).
# Columns and labels:
# [1] = system: T1, LHI-RC complex; test: Long-term stability of LHI-RC complexes, absorbance ratio A875/A680 over 20-day incubation at room temperature; set-up: species or system Rhodobacter capsulatus; details: for long-term stability of superassembly (A875/A680), in words: room temperature; for native conformation retained by detergent-purified proteins: after 20 day-incubation at room temperature
# T1 construct: made in house; host or cells: Rhodobacter capsulatus U43[pUHTM86Bgl], intracytoplasmic membranes
# T1 sequence (P11847 whole entry): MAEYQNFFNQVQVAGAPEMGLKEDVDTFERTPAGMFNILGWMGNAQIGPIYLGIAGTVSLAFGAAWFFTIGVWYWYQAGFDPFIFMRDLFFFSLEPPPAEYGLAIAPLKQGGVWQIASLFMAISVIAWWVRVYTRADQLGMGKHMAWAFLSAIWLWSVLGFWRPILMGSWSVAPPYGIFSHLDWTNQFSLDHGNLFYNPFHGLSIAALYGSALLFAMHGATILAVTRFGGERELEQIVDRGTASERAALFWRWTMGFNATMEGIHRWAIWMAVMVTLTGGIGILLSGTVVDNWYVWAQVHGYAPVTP
# T1 sequence (P19057 whole entry, further chain): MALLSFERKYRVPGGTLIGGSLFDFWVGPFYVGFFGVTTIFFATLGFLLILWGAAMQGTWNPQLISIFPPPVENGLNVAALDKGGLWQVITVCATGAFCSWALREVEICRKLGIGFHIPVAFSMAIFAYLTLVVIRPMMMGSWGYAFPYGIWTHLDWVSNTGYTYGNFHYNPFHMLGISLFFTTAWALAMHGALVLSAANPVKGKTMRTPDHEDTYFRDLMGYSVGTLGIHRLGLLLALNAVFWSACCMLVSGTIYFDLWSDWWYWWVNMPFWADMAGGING
# T1 sequence (P19056 whole entry, further chain): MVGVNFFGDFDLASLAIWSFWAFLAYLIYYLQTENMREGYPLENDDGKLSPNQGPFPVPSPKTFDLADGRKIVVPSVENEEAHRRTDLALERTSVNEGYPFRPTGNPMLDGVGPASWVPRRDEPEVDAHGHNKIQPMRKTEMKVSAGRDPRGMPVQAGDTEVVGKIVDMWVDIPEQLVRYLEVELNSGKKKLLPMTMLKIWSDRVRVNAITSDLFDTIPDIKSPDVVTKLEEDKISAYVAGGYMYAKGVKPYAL
# T1 sequence (P02948 whole entry, further chain): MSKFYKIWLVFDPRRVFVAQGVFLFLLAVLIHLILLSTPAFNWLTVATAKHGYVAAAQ
# T1 sequence (P02950 whole entry, further chain): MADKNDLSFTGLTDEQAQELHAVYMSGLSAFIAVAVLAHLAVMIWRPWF
# Description: The favorable properties of CAO and DCAO in terms of membrane protein stabilization prompted further evaluation of these reagents' ability to stabilize protein superassemblies as a function of time. DDM-purified samples were diluted with solutions containing CAO or LDAO. […] Protein stability was monitored over time at room temperature by measuring absorbance ratios (A875/A680) (absorption at 680 nm arises from the oxidation of bacteriochlorophyll dissociated from LHI upon denaturation). […] Of note, DCAO was not evaluated in this long-term stability of the superassembly due to its high tendency to form a hydrogel at this high concentration.
# R. capsulatus superassembly was purified in DDM according to the protocol described above. The DDM-purified sample was then diluted to the solutions containing individual detergents (CAO, CAO-1, DCAO, DCAO-2, DDM and LDAO). The dilution makes DDM concentration reached far below its CMC and the final individual detergent concentration at CMC+0.04 wt % or CMC+1.0 wt %. The spectra of individual detergents-solubilized LHI-RC complexes were taken in a range of 650 nm to 950 nm at regular intervals over 20 days during the incubation at room temperature. Protein integrity in each sample was assessed via changes in absorbance ratio (A875/A680) with time.
# Similar criteria and protocols were used to judge the ability of amphiphiles to maintain solubilized and purified superassembly for extended periods. In this case, UV Vis-nearIR spectra were recorded at regular intervals. The degradation of the material could be monitored with the A875/A680 absorbance ratio, which decreased with time and sample integrity as the dominant 875 nm absorption of intact LHI disappeared and a 680 nm band appeared, indicating the presence of unbound, oxidized cofactors.
# [2] = system: T1, LHI-RC complex; test: Solubilization of LHI-RC complex from R. capsulatus intracytoplasmic membranes (pellet/supernatant absorbance spectra); set-up: species or system Rhodobacter capsulatus; details: for SY (%) Solubilization yield of LHI-RC complex from the membrane: 2×CMC for DPA-2, CAO, CAO-1, 10×CMC for other new agents, 50×CMC for DDM and LDAO, 32° C., 30 min
# Description: (§1) These two reagents were chosen as control agents for the assay. For the superassembly solubilization, the intracytoplasmic R. capsulatus membranes enriched in LHI-RC complex were treated with 10×CMC individual new agents except DPA-2; DPA-2 was tested at 2×CMC based on its high CMC value. On the other hand, conventional detergents (LDAO and DDM) were used at 50×CMC due to the small CMC value in terms of wt. %. The solubilized protein portion and insolubilized part containing cellular debris and insolubilized membranes were separated via ultracentrifugation and isolated as the supernatant and pellet, respectively. The absorption spectra of these two portions were taken to assess detergents efficacy on the protein solubilization and stabilization.
# (§2) The solubilization and purification of the R. capsulatus superassembly were conducted according to the published protocol (Chae et al., ChemBioChem 2008, 9, 1706-1709). First, specialized photosynthetic membranes called intracytoplasmic membranes were obtained from an engineered strain of Rhodobacter (R.) capsulatus, U43[pUHTM86Bgl], lacking the light-harvesting complex II (LHII). The solubilization experiment began by thawing and homogenizing frozen aliquots of R. capsulatus membranes at room temperature. The solution was then incubated with mild agitation at 32° C. for 30 min. Subsequently, the solution was further incubated for 30 min after adding individual detergents (2×CMC for DPA-2, CAO and CAO-1, 10×CMC for DPA-1, […], DCAO and DCAO-2, 50×CMC for DDM and LDAO) into 1.0 mL solutions of R. capsulatus superassembly. The solution was then subjected to ultracentrifugation at 310,000 g at 4° C. for 30 min to remove membrane debris.
# (§3) The spectra of solubilized supernatant and solubilized pellet were taken in a range from 650 nm to 950 nm after being homogenized. For the purification of the protein, detergent-solubilized samples were transferred into a new 1.7 mL microcentrifuge tube containing Ni-NTA resin (Qiagen, Inc.; Valencia, Calif.; pre-equilibriated and stored in an equal volume of buffer containing 10 mM Tris, pH 7.8, and 100 mM NaCl). Following one-hour incubation at 4° C. for protein binding, the resins were collected and washed twice with 0.5 mL of binding buffer (a pH 7.8 Tris solution containing DDM at 1×CMC). Purified protein solution were collected by eluting three times with 0.20 mL elution buffer solutions containing 1 M imidazole (otherwise, this buffer was identical to binding buffer; the pH of each solution was readjusted to pH=7.8) and diluted with 0.4 mL of the binding buffer to reach 1.0 mL solution. UV-Vis spectra of the superassembly purified in individual detergents were then taken to assess the stability of the protein.
# [3] = Critical micelle concentration (CMC) estimated with hydrophobic fluorescent dye diphenylhexatriene (DPH); type: physicochemical
# Description: The “Critical Micelle Concentration” (CMC) refers to the concentration of a detergent (e.g., an amphiphile as described herein) in an aqueous solution at which the detergent molecules self-assemble into micelles. Below the CMC, detergents are mostly monomeric; above the CMC, micelle concentration increases linearly with detergent concentration. The CMC is dependent upon many factors and is detergent-specific. The CMC of a detergent can be determined experimentally by measuring the solubilization of a water-insoluble dye or fluorophore while varying the concentration of detergent. A CMC may also be determined by measuring the diminution of the surface tension of an aqueous solution as a function of detergent concentration (CMCs determined by either method correlate with each other). The CMC is determined by extrapolating the plot of solubilization vs. concentration (or surface tension vs. concentration) in the two linear regions above and below the CMC. Where the two lines intersect is the CMC.
# The Critical Micelle Concentrations (CMCs) of compounds of the invention can be determined by standard techniques known to those of skill in the art. For example, CMCs of CAO and DCAO can be determined by monitoring uptake of a fluorescent dye (e.g., a dye such as 1,6-diphenylhexatriene) with increasing detergent concentration, monitored by fluorescence spectroscopy.
# [4] = system: T1, LHI-RC complex; test: Integrity of detergent-solubilized and Ni-NTA-purified LHI-RC complexes by UV-Vis absorption spectra; set-up: species or system Rhodobacter capsulatus; details: purified protein eluted at 1×CMC detergent
# Description: The presence of various types of cofactors such as bacteriochlorophyll and carotenoids embedded in the complexes, thereby providing a well-featured UV-Vis absorption spectrum, facilitates the assessment of the protein integrity for a set of detergents via optical spectrophotometry. The native conformation of the protein is represented by a very strong peak at 875 nm in its absorption spectrum, while the intact RC but denatured LHI, or denatured LHI and RC, produce rather intense peaks at ˜800 nm and ˜760 nm, respectively.
# as §1
# For the purification, the detergent-solubilized protein samples were subjected to a metal affinity column chromatography and eluted with the elution buffer containing 1M imidazole and 1×CMC individual detergents. The UV-Visible spectra of the resulting protein samples were taken to investigate the integrity of detergent-purified LHI-RC complexes.
# as §2, §3
# [5] = Water solubility and hydrogel formation of amphiphiles; type: physicochemical
# Description: The amphiphiles prepared, except LDAO and DCAO, are water-soluble at up to 10 wt. %. […] DCAO was initially soluble, at approximately 1.0 wt. %, but tends to form a hydrogel over time at concentrations of greater than about 0.3 wt. %. Critical micelle concentration (CMC) values were estimated by using a hydrophobic fluorescent dye, diphenyhexatriene (DPH) (see Laible et al., Biochemistry 2003, 42, 1718-1730).
# The CMC values were determined for CAO-1 (˜7.2 mM; ˜0.38 wt. %) and DCAO-2 (˜1.1 mM; ˜0.056 wt. %), which are similar to those of their parent compounds, CAO and DCAO, respectively (see Table 2.1 above). […] All of these cholate and deoxycholate-based agents preserved the native conformation of the superassembly during protein solubilization and purification processes.
# [6] = at CMC+0.04 wt. % and CMC+1.0 wt. %, 20 days
# [7] = estimated with DPH, Example 2, Table 2.1
SMILES,"long-term stability of superassembly (A875/A680), in words [1, 6]",SY (%) Solubilization yield of LHI-RC complex from the membrane [2] [%],"CMC [3, 7] [mM]","CMC (wt. %) [3, 7] [wt. %]","long-term stability of superassembly (A875/A680), in words ([1]; detergent at CMC+0.04 wt. %)","long-term stability of superassembly (A875/A680), in words ([1]; detergent at CMC+1.0 wt. %)",native structure of LHI-RC complexes after solubilization and purification (in words) [4],"CMC ([3]; Example 3, Table 3-2) [mM]","CMC (%) ([3]; Example 3, Table 3-2)",native conformation retained by detergent-purified proteins [1] [%],extraction/solubilization of LHI-RC complexes (in words) [2],water solubility (in words) [5]
CC(CCC(=O)N(C)CCC[N+](C)(C)[O-])C1CCC2C3C(O)CC4CC(O)CCC4(C)C3CC(O)C12C (stereo not shown) [CAO-1],clearly superior to DDM,~20,~7.2,~0.36,,,,,,,,
CC(CCC(=O)NCCC[N+](C)(C)[O-])C1CCC2C3C(O)CC4CC(O)CCC4(C)C3CC(O)C12C (stereo not shown) [CAO],clearly superior to DDM,~30,~8.3,~0.42,more stable than DDM-solubilized protein,efficacy difference between CAO and DDM was more prominent,fully retained as effectively as DDM,7.1,0.36,,,
"C[C@H](CCC(=O)NCCC[N+](C)(C)CCCS(=O)(=O)[O-])[C@H]1CC[C@H]2[C@@H]3[C@H](O)C[C@@H]4C[C@H](O)CC[C@]4(C)[C@H]3C[C@H](O)[C@]12C [CHAPS, 3-[(3-cholamidopropyl)-dimethylammonio]-1-propanesulfonate, reference compound]",,~50,~8.0,,,,without structural degradation,8,0.49,~65,,
"C[C@H](CCC(=O)NCCC[N+](C)(C)CC(O)CS(=O)(=O)[O-])[C@H]1CC[C@H]2[C@@H]3[C@H](O)C[C@@H]4C[C@H](O)CC[C@]4(C)[C@H]3C[C@H](O)[C@]12C (stereo partly shown) [CHAPSO, 3-[(3-cholamidopropyl)-dimethylammonio]-2-hydroxy-1-propanesulfonate, reference compound]",,~50,,,,,,8,0.5,~65,,
"CCCCCCCCCCCCO[C@@H]1O[C@H](CO)[C@@H](O[C@H]2O[C@H](CO)[C@@H](O)[C@H](O)[C@H]2O)[C@H](O)[C@H]1O [DDM, n-dodecyl-β-D-maltoside, reference compound]",,~70,~0.17,~0.0087,,,,,,,,
"C[N+](C)([O-])CCCNC(=O)CC1(C2CCCC2)CCCCCC1 [DPA-1, 3-(2-(1-cyclopentylcycloheptyl)acetamido)-N,N-dimethylpropan-1-amine oxide]",,~100,~13,~0.24,,,A similar trend was observed,,,,,
"C[N+](C)([O-])CCCNC(=O)CC(c1ccccc1)c1ccccc1 [DPA-2, reference compound]",,~15,~78,~2.5,,,,,,,,
"C[N+](C)([O-])CCCNC(=O)CC(C1CCCCC1)C1CCCCC1 [DPA-3, reference compound]",,~95,~4.9,~0.17,,,protein degradation observed for DPA-3 was much less than that observed for DPA-1,,,,,
"CCCCCCCCCCCC[N+](C)(C)[O-] [LDAO, lauryldimethylamine oxide, reference compound]",,~100,~1.0,~0.023,,,native protein conformation mostly destroyed,,,,extracted the complexes almost quantitatively,insoluble in water
